# US6369066B1, “Substituted 1,3-oxathiolanes with antiviral properties” (BioChem Pharma, Inc., priority 1990, dated 2002)
# Where two headings read alike, the source gives them in different places.
# Key:
# Format in all cases: cell-based
# HIV-1 IIIB = experiment: IC50 in CBMCs with HIV-1 isolate IIIB
# Procedure: (§1) In short, viruses (HTLV-IIIB) that had initially been grown on MT-4 cells were passaged onto phytohemaglutinin-prestimulated cord blood mononuclear cells (CBM). For subsequent analysis, samples of CBM (5×10^5 cells per mL) were pretreated with various concentrations of the different compounds for 4 h and were then inoculated with CBL-grown HIV-1 at a multiplicity of infection of 1.0 in the concentration of the compound used for the pretreatment. Fresh medium, including the appropriate concentration of the compound was added three times weekly, and fresh phytohemaglutinin-prestimulated CBM (5×10^5 cells per mL) were added at 2-day intervals. The calculation of IC50 was determined on the basis of RT levels in culture fluids as described in Gao et al., (1992), J. Virol. 66: 12-19.
# (§2) Determination of IC50 (μM) in Different Mutated Isolates of HIV-1 in the Presence of Different Antiviral Compounds
# (§3) The procedure is similar to the procedure used in the CBM assay, with the exception that constructed virus and construted mutated virus were used.
# HIV-1 HXB2D = experiment: IC50 in CBMCs with constructed virus HXB2D
# Procedure: as §1, §2, §3
# (§4) The constructed virus HXB2D-65 correspond to the ddC resistance mutation and the constructed virus HXB2D-184 correspond to the 3TC™ and FTC resistance mutation.
# [1] = test system: HIV-1 HXB2D-65 K→R (ddC resistance mutation); experiment: IC50 in CBMCs with constructed mutated virus HXB2D-65
# Procedure: as §1, §2, §3, §4
# [2] = test system: HIV-1 HXB2D-184 M→V (3TC™ and FTC resistance mutation); experiment: IC50 in CBMCs with constructed mutated virus HXB2D-184
# Procedure: as §1, §2, §3, §4
# HIV-1 strain RF = experiment: Formazan (MTT) assay on MT-4 cells, anti-HIV-1 antiviral activity; conditions: Human immunodeficiency virus 1, MT4, 168 h, MT-4 cells infected with HIV-1 strain RF, 7 days, read-out: IC50 (50% anti-viral dose, ID 50%)
# Procedure: Formazan Assay on MT-4 and 3TC™-Resistant Cell Lines
# (§5) Anti-HIV-1 antiviral activity was determined in MT-4 calls and MT-4 cells that have been made resistant to 3TC™. A suspension of cells (approximately 10^6 cells/ml) in RPMI 1640 growth medium was infected with HIV-1 strain RF at a M.O.I. of 10^−3 infectious units/cell. An uninfected cell suspension was prepared in parallel to evaluate drug-induced cytotoxicity. The two suspensions were incubated for 90 minutes at room temperature. Test compounds were serially diluted in 10-fold decrements from 100 μg/ml to 0.01 μg/ml (final concentrations in two 96 well microtitre plates. 20 μl of infected cell suspension were inoculated into each well of one of the plates (anti-viral), while 20 μl of uninfected cell suspension were added to each well of the second plate (cytotoxicity). The plates were then incubated for 7 days at 37° C. After incubation, 10 μl of 3-(4,5-dimethylthiazol-2-yl)-2,5-diphenyltetrazolium bromide (MTT) at 20 mg/ml was added to all wells and the plates incubated for a further 90 minutes at 37° C.
# 150 μl of 10% (v/v) alcoholic Triton X-100 was then added and the cells resuspended. After 15 minutes at room temperature, the plates were analyzed in a Multiskan MC reader at 405 nm. Conversion of yellow MMT to its formazan derivative is maximum in uninfected cells, and absent in untreated infected cells. The optical density values for the cytotoxicity controls and the antiviral test wells were graphically plotted and the dose of compounds required to inhibit the conversion of MMT to 50% of the untreated uninfected controls was calculated. In this way, both the 50% cytotoxic dose (CD 50%) and the 50% anti-viral dose (ID 50%) can be calculated.
# HIV-1 (HTLV-IIIB) = experiment: CBM assay, IC50 from RT levels in culture fluids; conditions: Human immunodeficiency virus 1
# Procedure: Assays on cord blood mononuclear cells were done substantially as described in Gu et al., J. Virol. (1992), 66:7128-7135.
# as §1
# HTLV-IIIb = experiment: HIV-1 acutely infected cell lines, p24 antigen levels; conditions: p24 antigen at day 6; for ID50 CEM: CEM cells infected with HTLV-IIIb; for ID50 H9: H9 cells infected with HTLV-IIIb; for ID50 Jurkat: Jurkat cells infected with HTLV-IIIb; for ID50 MT-4: MT-4 cells infected with HTLV-IIIb; for ID50 U937: U937 cells infected with HTLV-IIIb
# Procedure: Determination of IC50 ([…]) in HIV-1 Acutely Infected Cell Lines in the Presence of Differet Antiviral Compounds
# Various cell lines were infected with HTLV-IIIb (TCID50=200) and then cultured with various concentrations of drug. IC50 was determined by measuring p24 antigen levels in the supernatant of cultures at day 6 of infection.
# CBMCs = experiment: Cell culture inhibitory dose (CCID50) in CBMCs; conditions: cell counting, trypan blue exclusion, 7 days post drug treatment
# Procedure: (§6) Evaluation of Cell Culture Inhibitory Dose (CCID50)
# (§7) Cell growth was determined by cell counting and viability by trypan blue exclusion 7 days post drug treatment. CCID50 is expressed as the drug concentration which inhibits 50% of cell growth.
# MT-4 = experiment: Cell culture inhibitory dose (CCID50) in MT-4; conditions: cell counting, trypan blue exclusion, 7 days post drug treatment
# Procedure: as §6, §7
# U937 = experiment: Cell culture inhibitory dose (CCID50) in U937; conditions: cell counting, trypan blue exclusion, 7 days post drug treatment
# Procedure: as §6, §7
# Jurkat = experiment: Cell culture inhibitory dose (CCID50) in Jurkat; conditions: cell counting, trypan blue exclusion, 7 days post drug treatment
# Procedure: as §6, §7
# H9 = experiment: Cell culture inhibitory dose (CCID50) in H9; conditions: cell counting, trypan blue exclusion, 7 days post drug treatment
# Procedure: as §6, §7
# CEM = experiment: Cell culture inhibitory dose (CCID50) in CEM; conditions: cell counting, trypan blue exclusion, 7 days post drug treatment
# Procedure: as §6, §7
# MT-4 cells = experiment: Formazan (MTT) assay, drug-induced cytotoxicity in uninfected MT-4 cells; conditions: human, 7 days
# Procedure: as §5, with “A suspension of cells (approximately 10^6 cells/ml) in RPMI 1640 growth medium was infected with HIV-1 strain RF at a M.O.I. of 10^−3 infectious units/cell.” left out
# 150 μl of 10% (v/v) alcoholic Triton X-100 was then added and the cells resuspended. After 15 minutes at room temperature, the plates were analyzed in a Multiskan MC reader at 405 nm. […] The optical density values for the cytotoxicity controls and the antiviral test wells were graphically plotted and the dose of compounds required to inhibit the conversion of MMT to 50% of the untreated uninfected controls was calculated.
# [3] = test system: cord blood mononuclear cells (CBM); experiment: Cytotoxicity (CD50) reported with CBM assay
# Procedure: Assays on cord blood mononuclear cells were done substantially as described in Gu et al., J. Virol.
# as §1, with “The calculation of IC50 was determined on the basis of RT levels in culture fluids as described in Gao et al., (1992), J. Virol.” left out
# human hepatitis B virus = experiment: Inhibition of human hepatitis B virus in 2.2.15 cells, extracellular HBV DNA; conditions: 10 day treatment
# Procedure: Inhibition of Human Hepatitis B Virus.
# (§8) The method used for this test is described in detail in Korba et al., Antiviral research 15, 217-228 (1992) which is shortly described as follows: Hep G2 cells transfected with human hepatitis B virus genomic DNA (2.2.15 cells) were grown and maintained in RPMI-1640 culture medium containing %5 foetal bovine serum, 2 mM glutamine and 50 μg/ml gentamicin sulphate, and checked routinely for G418 resistance. Cultures of 2.2.15 cells were grown to confluence in 24 well tissue culture plates and maintained for 2 to 3 days in that condition prior to drug treatment.
# Drugs were dissolved in sterile water or sterile 50% DMSO in water at concentrations 100-fold higher than the higher test concentration. These solutions were diluted as needed in culture medium.
# The culture medium on the confluent cells was changed 24 hours prior to exposure to test compounds. During the 10 day treatment, the culture medium was changed daily. After 10 days of the treatment, the culture medium was collected and frozen at −70° C. for HBV DNA analysis. […]
# A purified 3.2 kb EcoR1 HBV DNA fragment was labeled with [^32p]dCTP by nick translation and used as a probe to detect HBV DNA on the dot-blot by DNA hybridization. After washing, the hybridized blot was dried and ^32p was quantified using an Ambis beta scanner.
# [4] = test system: 2.2.15 cells (Hep G2 cells transfected with human hepatitis B virus genomic DNA); experiment: Cytotoxicity (CD50) reported with HBV assay; conditions: HBV table
# Procedure: as §8
# [5] = Human immunodeficiency virus 1, read-out: IC50 HXB2D
# [6] = Human immunodeficiency virus 1, read-out: IC50 HXB2D-65 K→R
# [7] = Human immunodeficiency virus 1, read-out: IC50 HXB2D-184 M→V
Structure (SMILES),IC50 (HIV-1 strain RF),IC50 (HIV-1 (HTLV-IIIB)),IC50 (HIV-1 IIIB; Human immunodeficiency virus 1),IC50 (HIV-1 HXB2D; [5]),"IC50 [1, 6]","IC50 [2, 7]",ID50 CEM (HTLV-IIIb),ID50 H9 (HTLV-IIIb),ID50 Jurkat (HTLV-IIIb),ID50 MT-4 (HTLV-IIIb),ID50 U937 (HTLV-IIIb),CCID50 CBMCs (CBMCs),CCID50 MT-4 (MT-4),CCID50 U937 (U937),CCID50 Jurkat (Jurkat),CCID50 H9 (H9),CCID50 CEM (CEM),CD50 (50% cytotoxic dose) (MT-4 cells),CD50 [3],other results
"Nc1ccn([C@@H]2CS[C@H](CO)O2)c(=O)n1 [3TC ™, reference compound]",,,,,,,,,,,,,,,,,,,,"IC50 (HIV-1 IIIB): 10 nM; IC50 (HIV-1 HXB2D; CBMCs, constructed virus HXB2D, read-out: IC50 HXB2D): 80 nM; IC50 ([1]; CBMCs, ddC resistance mutation, read-out: IC50 HXB2D-65 K→R): 125 nM; IC50 ([2]; CBMCs, 3TC™ and FTC resistance mutation, read-out: IC50 HXB2D-184 M→V): 42500 nM"
"Cc1cn([C@H]2C[C@H](N=[N+]=[N-])[C@@H](CO)O2)c(=O)[nH]c1=O [AZT, 3′-azido-3′-deoxythymidine, reference compound]",0.01 µg/mL,< 0.002 µg/mL,2 nM,2 nM,1 nM,1 nM,0.01 µg/mL,0.07 µg/mL,0.01 µg/mL,0.005 µg/mL,0.04 µg/mL,45 µM,110 µM,110 µM,>500 µM,200 µM,500 µM,,,
"Nc1ccn(C2COC(CO)S2)c(=O)n1 (stereo not drawn) [BCH-270, Cis- and Trans-2-hydroxymethyl-4-(cytosin-1′-yl)-1,3-oxathiolane]",4 µg/mL,0.03 µg/mL,,,,,,,,,,,,,,,,>100 µg/mL,>23 µg/mL,ID50 (HBV) (human hepatitis B virus): 7.5 µg/mL; CD50 (HBV) [4]: >10 µg/mL
"Nc1ccn([C@H]2CO[C@@H](CO)S2)c(=O)n1 [Compound #1, 2R-hydroxymethyl-4R-(cytosin-1′-yl)-1,3-oxathiolane]",13 µg/mL,0.05 to 1.22 µg/mL,220 nM,1000 nM,2500 nM,530 nM,0.2 µg/mL,0.3 µg/mL,3.0 µg/mL,2.8 µg/mL,0.4 µg/mL,>500 µM,>500 µM,>500 µM,450 µM,>500 µM,>500 µM,>100 µg/mL,>23 µg/mL,
